{"source": "patent US9826761B2", "about": "“Compositions and methods for mitigating dietary sulfur in animals” (SarTec Corporation, priority 2008, dated 2017)", "key": {"[1]": {"test": "Precipitating activity: rumen fluid containing manganese compound titrated with 1.0M Na2S, silver/sulfide electrode", "parameters": "species or system Holstein cows", "details": "200 mM MnO(II) in rumen fluid", "experimental": "Next, 0.28 g of MnO(II) was placed in a 100 ml beaker and 20 ml of rumen fluid was added. Then 0.17 g of MnO2(IV) was placed in 100 ml beaker and 20 ml of rumen fluid was added. Each of these compositions, in addition to a rumen fluid control, was then titrated with a 1.0M solution of Na2S. The progress of the reaction was followed using the same silver/sulfide electrode set-up described above (Orion, Ion Plus Silver/Sulfide 9616BNWP)."}, "[2]": {"test": "Titration of approx. 200 mM sulfide in fresh rumen fluid with 1 M metal chloride, silver/sulfide electrode", "parameters": "species or system Holstein cows", "details": "for mVolts (Negative Value): ~200 mM sulfide, fresh rumen fluid", "experimental": "Fresh undiluted rumen fluid was obtained from rumen fistulated Holstein cows. 1.5 ml of a saturated solution of Na2S in water (approximately 2.7 M) was added to 18.5 ml of the rumen fluid. Sodium sulfide solutions were quantified by titration using a silver/sulfide electrode (Orion, Ion Plus Silver/Sulfide 9616BNWP) and a commercial lead standard (0.1 M Pb^2+, Orion 948206). The final concentration for sulfide ion in the rumen fluid was approximately 200 mM. This solution was then titrated with a 1 M solution of MnCl2 in water. The progress of the reaction was followed using the silver/sulfide electrode.\nFresh undiluted rumen fluid was obtained from rumen fistulated Holstein cows. 1.5 ml of saturated solution of Na2S in water (approximately 2.7 M) was added to 18.5 ml of the rumen fluid. The final concentration of sulfide ion in the rumen fluid was approximately 200 mM. This solution was then titrated with a 1 M solution of FeCl2 in water. The progress of the reaction was followed using the same silver/sulfide electrode set-up described above (Orion, Ion Plus Silver/Sulfide 9616BNWP).\nData taken from Examples 1 and 2 above were plotted together in order to gauge the relative efficacy of MnCl2 versus FeCl2 in removing sulfide ion from rumen fluid."}}}
{"smiles": "[O]=[Mn]", "note": "[MnO(II)]", "values": [{"measurement": "mVolts", "setting": "[1]; Vol 1M Na2S 0.0", "result": 604.6, "unit": "mVolts"}, {"measurement": "mVolts", "setting": "[1]; Vol 1M Na2S 0.1", "result": 674.0, "unit": "mVolts"}, {"measurement": "mVolts", "setting": "[1]; Vol 1M Na2S 0.2", "result": 702.9, "unit": "mVolts"}, {"measurement": "mVolts", "setting": "[1]; Vol 1M Na2S 0.4", "result": 724.5, "unit": "mVolts"}, {"measurement": "mVolts", "setting": "[1]; Vol 1M Na2S 0.5", "result": 745.7, "unit": "mVolts"}, {"measurement": "mVolts", "setting": "[1]; Vol 1M Na2S 0.6", "result": 760.6, "unit": "mVolts"}, {"measurement": "mVolts", "setting": "[1]; Vol 1M Na2S 0.7", "result": 777.3, "unit": "mVolts"}, {"measurement": "mVolts", "setting": "[1]; Vol 1M Na2S 0.8", "result": 789.8, "unit": "mVolts"}, {"measurement": "mVolts", "setting": "[1]; Vol 1M Na2S 0.9", "result": 803.7, "unit": "mVolts"}, {"measurement": "mVolts", "setting": "[1]; Vol 1M Na2S 1.0", "result": 803.9, "unit": "mVolts"}, {"measurement": "mVolts", "setting": "[1]; Vol 1M Na2S 1.1", "result": 825.2, "unit": "mVolts"}, {"measurement": "mVolts", "setting": "[1]; Vol 1M Na2S 1.3", "result": 833.7, "unit": "mVolts"}, {"measurement": "mVolts", "setting": "[1]; Vol 1M Na2S 1.4", "result": 843.1, "unit": "mVolts"}, {"measurement": "mVolts", "setting": "[1]; Vol 1M Na2S 1.5", "result": 848.0, "unit": "mVolts"}, {"measurement": "mVolts", "setting": "[1]; Vol 1M Na2S 1.6", "result": 852.1, "unit": "mVolts"}]}
{"smiles": "[Cl][Fe][Cl]", "note": "[FeCl2, iron (II) chloride]", "values": [{"measurement": "concentration of sulfide ion within the rumen fluid", "setting": "[2]; addition of 1 M titrant to ~200 mM sulfide in fresh rumen fluid", "result": "effective to reduce the concentration of sulfide ion"}, {"measurement": "total sulfide ion concentrations in the rumen fluid, FeCl2 versus MnCl2", "setting": "[2]; data of Examples 1 and 2 plotted together (FIG. 3)", "result": "lower total sulfide ion concentrations"}, {"measurement": "mVolts (Negative Value)", "setting": "[2]; titrant volume 0.0 of 1M FeCl2", "result": 937.5, "unit": "mVolts"}, {"measurement": "mVolts (Negative Value)", "setting": "[2]; titrant volume 0.1 of 1M FeCl2", "result": 937.5, "unit": "mVolts"}, {"measurement": "mVolts (Negative Value)", "setting": "[2]; titrant volume 0.4 of 1M FeCl2", "result": 935.1, "unit": "mVolts"}, {"measurement": "mVolts (Negative Value)", "setting": "[2]; titrant volume 0.6 of 1M FeCl2", "result": 906.2, "unit": "mVolts"}, {"measurement": "mVolts (Negative Value)", "setting": "[2]; titrant volume 0.8 of 1M FeCl2", "result": 926.7, "unit": "mVolts"}, {"measurement": "mVolts (Negative Value)", "setting": "[2]; titrant volume 1.0 of 1M FeCl2", "result": 916.9, "unit": "mVolts"}, {"measurement": "mVolts (Negative Value)", "setting": "[2]; titrant volume 1.3 of 1M FeCl2", "result": 905.8, "unit": "mVolts"}, {"measurement": "mVolts (Negative Value)", "setting": "[2]; titrant volume 1.5 of 1M FeCl2", "result": 886.6, "unit": "mVolts"}, {"measurement": "mVolts (Negative Value)", "setting": "[2]; titrant volume 1.7 of 1M FeCl2", "result": 869.4, "unit": "mVolts"}, {"measurement": "mVolts (Negative Value)", "setting": "[2]; titrant volume 1.9 of 1M FeCl2", "result": 849.4, "unit": "mVolts"}, {"measurement": "mVolts (Negative Value)", "setting": "[2]; titrant volume 2.1 of 1M FeCl2", "result": 833.9, "unit": "mVolts"}, {"measurement": "mVolts (Negative Value)", "setting": "[2]; titrant volume 2.4 of 1M FeCl2", "result": 817.3, "unit": "mVolts"}, {"measurement": "mVolts (Negative Value)", "setting": "[2]; titrant volume 2.6 of 1M FeCl2", "result": 816.8, "unit": "mVolts"}, {"measurement": "mVolts (Negative Value)", "setting": "[2]; titrant volume 2.8 of 1M FeCl2", "result": 767.2, "unit": "mVolts"}, {"measurement": "mVolts (Negative Value)", "setting": "[2]; titrant volume 3.0 of 1M FeCl2", "result": 735.5, "unit": "mVolts"}, {"measurement": "mVolts (Negative Value)", "setting": "[2]; titrant volume 3.5 of 1M FeCl2", "result": 634.0, "unit": "mVolts"}, {"measurement": "mVolts (Negative Value)", "setting": "[2]; titrant volume 3.7 of 1M FeCl2", "result": 622.8, "unit": "mVolts"}, {"measurement": "mVolts (Negative Value)", "setting": "[2]; titrant volume 3.9 of 1M FeCl2", "result": 616.3, "unit": "mVolts"}, {"measurement": "mVolts (Negative Value)", "setting": "[2]; titrant volume 4.1 of 1M FeCl2", "result": 610.8, "unit": "mVolts"}, {"measurement": "mVolts (Negative Value)", "setting": "[2]; titrant volume 4.3 of 1M FeCl2", "result": 607.2, "unit": "mVolts"}, {"measurement": "mVolts (Negative Value)", "setting": "[2]; titrant volume 4.5 of 1M FeCl2", "result": 603.3, "unit": "mVolts"}, {"measurement": "mVolts (Negative Value)", "setting": "[2]; titrant volume 4.8 of 1M FeCl2", "result": 600.0, "unit": "mVolts"}, {"measurement": "mVolts (Negative Value)", "setting": "[2]; titrant volume 5.0 of 1M FeCl2", "result": 595.7, "unit": "mVolts"}, {"measurement": "mVolts (Negative Value)", "setting": "[2]; titrant volume 5.5 of 1M FeCl2", "result": 590.0, "unit": "mVolts"}, {"measurement": "mVolts (Negative Value)", "setting": "[2]; titrant volume 6.0 of 1M FeCl2", "result": 586.5, "unit": "mVolts"}]}
